Assay results: PubChem BioAssay (NCI)
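48-hour exposure; five concentrations; linearly interpolated endpoints. TGI: total growth inhibition.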

Tests used:
Assay in all cases: NCI anticancer screen, dose series, 48 h
786-0 renal = system: 786-0 renal
A498 renal = system: A498 renal
A549 NSCLC = system: A549 NSCLC
ACHN renal = system: ACHN renal
BT-549 breast = system: BT-549 breast
CAKI-1 renal = system: CAKI-1 renal
CCRF-CEM leukemia = system: CCRF-CEM leukemia
COLO 205 colon = system: COLO 205 colon
DU-145 prostate = system: DU-145 prostate
EKVX NSCLC = system: EKVX NSCLC
HCC-2998 colon = system: HCC-2998 colon
HCT-116 colon = system: HCT-116 colon
HCT-15 colon = system: HCT-15 colon
HL-60(TB) leukemia = system: HL-60(TB) leukemia
HOP-62 NSCLC = system: HOP-62 NSCLC
HOP-92 NSCLC = system: HOP-92 NSCLC
HT29 colon = system: HT29 colon
IGROV1 ovarian = system: IGROV1 ovarian
K-562 leukemia = system: K-562 leukemia
KM12 colon = system: KM12 colon
LOX IMVI melanoma = system: LOX IMVI melanoma
M14 melanoma = system: M14 melanoma
MALME-3M melanoma = system: MALME-3M melanoma
MCF7 breast = system: MCF7 breast
MDA-N = system: MDA-N
MOLT-4 leukemia = system: MOLT-4 leukemia
NCI-H226 lung = system: NCI-H226 lung
NCI-H23 lung = system: NCI-H23 lung
NCI-H460 lung = system: NCI-H460 lung
NCI-H522 lung = system: NCI-H522 lung
NCI/ADR-RES ovarian = system: NCI/ADR-RES ovarian
OVCAR-3 ovarian = system: OVCAR-3 ovarian
OVCAR-4 ovarian = system: OVCAR-4 ovarian
OVCAR-5 ovarian = system: OVCAR-5 ovarian
OVCAR-8 ovarian = system: OVCAR-8 ovarian
PC-3 prostate = system: PC-3 prostate
RPMI-8226 leukemia = system: RPMI-8226 leukemia
RXF 393 renal = system: RXF 393 renal
SF-268 CNS = system: SF-268 CNS
SF-295 CNS = system: SF-295 CNS
SF-539 CNS = system: SF-539 CNS
SK-MEL-2 melanoma = system: SK-MEL-2 melanoma
SK-MEL-28 melanoma = system: SK-MEL-28 melanoma
SK-MEL-5 melanoma = system: SK-MEL-5 melanoma
SK-OV-3 ovarian = system: SK-OV-3 ovarian
SN12C renal = system: SN12C renal
SNB-19 CNS = system: SNB-19 CNS
SNB-75 CNS = system: SNB-75 CNS
SR leukemia = system: SR leukemia
SW-620 colon = system: SW-620 colon
T-47D breast = system: T-47D breast
TK-10 renal = system: TK-10 renal
U251 CNS = system: U251 CNS
UACC-257 melanoma = system: UACC-257 melanoma
UO-31 renal = system: UO-31 renal
MDA-MB-231 breast = system: MDA-MB-231 breast
MDA-MB-435 = system: MDA-MB-435
UACC-62 melanoma = system: UACC-62 melanoma

Cc1cc(S(=O)(=O)Nc2nc(N)nc(N(C)C)n2)c(S)cc1Cl
TGI (786-0 renal): > 10 µM
TGI (A498 renal): > 10 µM
TGI (A549 NSCLC): > 10 µM
TGI (ACHN renal): > 10 µM
TGI (BT-549 breast): > 10 µM
TGI (CAKI-1 renal): > 10 µM
TGI (CCRF-CEM leukemia): > 10 µM
TGI (COLO 205 colon): > 10 µM
TGI (DU-145 prostate): > 10 µM
TGI (EKVX NSCLC): > 10 µM
TGI (HCC-2998 colon): > 10 µM
TGI (HCT-116 colon): > 10 µM
TGI (HCT-15 colon): > 10 µM
TGI (HL-60(TB) leukemia): > 10 µM
TGI (HOP-62 NSCLC): > 10 µM
TGI (HOP-92 NSCLC): > 10 µM
TGI (HT29 colon): > 10 µM
TGI (IGROV1 ovarian): > 10 µM
TGI (K-562 leukemia): > 10 µM
TGI (KM12 colon): > 10 µM
TGI (LOX IMVI melanoma): > 10 µM
TGI (M14 melanoma): > 10 µM
TGI (MALME-3M melanoma): > 10 µM
TGI (MCF7 breast): > 10 µM
TGI (MDA-N): > 10 µM
TGI (MOLT-4 leukemia): > 10 µM
TGI (NCI-H226 lung): > 10 µM
TGI (NCI-H23 lung): > 10 µM
TGI (NCI-H460 lung): > 10 µM
TGI (NCI-H522 lung): > 10 µM
TGI (NCI/ADR-RES ovarian): > 10 µM
TGI (OVCAR-3 ovarian): > 10 µM
TGI (OVCAR-4 ovarian): > 10 µM
TGI (OVCAR-5 ovarian): > 10 µM
TGI (OVCAR-8 ovarian): > 10 µM
TGI (PC-3 prostate): > 10 µM
TGI (RPMI-8226 leukemia): > 10 µM
TGI (RXF 393 renal): > 10 µM
TGI (SF-268 CNS): > 10 µM
TGI (SF-295 CNS): > 10 µM
TGI (SF-539 CNS): > 10 µM
TGI (SK-MEL-2 melanoma): > 10 µM
TGI (SK-MEL-28 melanoma): > 10 µM
TGI (SK-MEL-5 melanoma): > 10 µM
TGI (SK-OV-3 ovarian): > 10 µM
TGI (SN12C renal): > 10 µM
TGI (SNB-19 CNS): > 10 µM
TGI (SNB-75 CNS): > 10 µM
TGI (SR leukemia): > 10 µM
TGI (SW-620 colon): > 10 µM
TGI (T-47D breast): > 10 µM
TGI (TK-10 renal): > 10 µM
TGI (U251 CNS): > 10 µM
TGI (UACC-257 melanoma): > 10 µM
TGI (UO-31 renal): > 10 µM

O=C(O)c1ccccc1SCc1cccc2c(=O)c3ccc(Cl)cc3oc12
TGI (786-0 renal): > 50 µM
TGI (A498 renal): > 50 µM
TGI (A549 NSCLC): > 50 µM
TGI (ACHN renal): > 50 µM
TGI (BT-549 breast): > 50 µM
TGI (CAKI-1 renal): > 50 µM
TGI (CCRF-CEM leukemia): > 50 µM
TGI (COLO 205 colon): > 50 µM
TGI (EKVX NSCLC): > 50 µM
TGI (HCC-2998 colon): > 50 µM
TGI (HCT-116 colon): > 50 µM
TGI (HCT-15 colon): > 50 µM
TGI (HL-60(TB) leukemia): 27.7 µM
TGI (HOP-62 NSCLC): 47.3 µM
TGI (HT29 colon): > 50 µM
TGI (IGROV1 ovarian): > 50 µM
TGI (K-562 leukemia): > 50 µM
TGI (KM12 colon): > 50 µM
TGI (LOX IMVI melanoma): > 50 µM
TGI (M14 melanoma): > 50 µM
TGI (MALME-3M melanoma): 44.9 µM
TGI (MCF7 breast): > 50 µM
TGI (MDA-MB-231 breast): > 50 µM
TGI (MDA-MB-435): > 50 µM
TGI (MDA-N): > 50 µM
TGI (MOLT-4 leukemia): > 50 µM
TGI (NCI-H226 lung): > 50 µM
TGI (NCI-H23 lung): > 50 µM
TGI (NCI-H522 lung): > 50 µM
TGI (NCI/ADR-RES ovarian): > 50 µM
TGI (OVCAR-3 ovarian): > 50 µM
TGI (OVCAR-4 ovarian): > 50 µM
TGI (OVCAR-5 ovarian): > 50 µM
TGI (OVCAR-8 ovarian): > 50 µM
TGI (PC-3 prostate): > 50 µM
TGI (RPMI-8226 leukemia): > 50 µM
TGI (SF-295 CNS): > 50 µM
TGI (SF-539 CNS): > 50 µM
TGI (SK-MEL-2 melanoma): > 50 µM
TGI (SK-MEL-28 melanoma): > 50 µM
TGI (SK-MEL-5 melanoma): > 50 µM
TGI (SK-OV-3 ovarian): > 50 µM
TGI (SN12C renal): > 50 µM
TGI (SNB-75 CNS): > 50 µM
TGI (SR leukemia): > 50 µM
TGI (SW-620 colon): > 50 µM
TGI (T-47D breast): > 50 µM
TGI (TK-10 renal): > 50 µM
TGI (U251 CNS): > 50 µM
TGI (UACC-257 melanoma): > 50 µM
TGI (UACC-62 melanoma): > 50 µM
TGI (UO-31 renal): > 50 µM
